Results from patent US20230301924A1, “PHARMACEUTICAL FORMULATION” (Janssen Pharmaceuticals, Inc., priority 2020, published 2023).

Key:
Type in all cases: physicochemical
[1] = Solubility test in Gelucire 50/13 and PEG 3350
Procedure: Compound (a) was weighed into a 1.5 mL HPLC vial, added about 1 mL or 880 mg of molten media, then kept stirring at different temperature at 700 rpm (see details in Table 1). Compound (a) was added until a suspension was visually observable. After stirring for about 24 hours, the obtained mixtures were quickly transferred to a filter centrifugal tube and centrifuged at 40° C. for 1 minute at 14000 rpm rate. The solution in the bottom of the filter centrifugal tube was weighed into 10 mL or 25 mL volumetric flasks (about 15-20 mg), diluents were added (ACN: water=1:1 v/v for PEG3350 or MeOH:water=8:2 v/v for Gelucire 50/13), ultrasonicated for 10 min and more diluent was added to scale and analyzed by UPLC (see method above).

[2] = Solubility test in PEG1000
Procedure: About 0.5 g of compound (a) was weighed into 4 mL glass vials, 1.5 g of molten PEG1000 were then added and kept stirring at 40° C. or 50° C. at 700 rpm. After stirring for 24 hours, the obtained mixtures were transferred into a filter centrifugal tube and centrifuged at 40° C. for 1 minute at 14000 rpm rate. The solution in the bottom of filter centrifugal tube wad weighed into 25 mL volumetric flasks (about 25 mg), diluent was added ACN:H2O=1:1 v/v, ultrasonicated for 10 min and more diluent was added to scale and analyzed by UPLC (see method above).

[3] = Solubility test in TPGS with different ratios of PEG1000
Procedure: About 0.2 g of compound (a) was weighed into 1.5 mL HPLC vials, 0.6 g of molten TPGS, TPGS with 5%, 10% or 15% PEG1000 (in w/w of TPGS) were then added and kept stirring at 45° C. at 700 rpm. Additionally to each of these mixtures, 100 ppm of Ascorbic Palmitate were added. After stirring for 24 hours, they were transferred into filter centrifugal tube and centrifuged at 40° C. for 5 minutes at 14000 rpm rate. The solutions in the bottom of filter centrifugal tube were weighed into 25 mL volumetric flasks (about 10-20 mg), diluent was added ACN:H2O=1:1 v/v, ultrasonicated for 10 min and more diluent was added to scale and analyze by UPLC (see method above). The solid residues after solubility test were collected and analyzed by XRPD (the solid residue in TPGS and TPGS with 5% PEG1000 were washed with water at 50° C. 3 times and analyzed by XRPD).
Solubility test of compound (a) in TPGS with different ratio of PEG1000 after stirring at 45° C. for 96 hours were further tested to determine the effect of time on solubility and XRPD pattern.

[4] = Solubility of compound (a) in mixed excipients (TPGS with Precirol ATO 5, PEG6000 or PEG3350)
Procedure: The solubility of these mixed excipients with compound (a) was then tested. Different ratios of the excipients were mixed at different temperatures (Table 6); then compound (a) was added and the mixtures stirred at the same temperature. The samples were analyzed by UPLC (see method above).

## COc1cc(NC(C(=O)c2c[nH]c3ccc(OC(F)(F)F)cc23)c2ccc(Cl)cc2OC)cc(S(C)(=O)=O)c1 (centres unmarked) [compound (a)]
[1]; in Gelucire 50/13, 55° C., 700 rpm for 24 hours
  Solubility: 141 mg/g
[1]; in Gelucire 50/13, 60° C., 700 rpm for 24 hours
  Solubility: 148 mg/g
[1]; in Gelucire 50/13 after stirring at 55° C. and 60° C. for 24 hours
  Solubility: higher than 120 mg/g
[1]; in PEG 3350, 60° C., 700 rpm for 24 hours
  Solubility: 112 mg/g
[1]; in PEG 3350, 65° C., 700 rpm for 24 hours
  Solubility: 121 mg/g
[1]; in PEG 3350 at both 60° C. and 65° C.
  Solubility: ≤ 120 mg/g
[2]; in PEG1000
  Solubility: about 140 mg/g
[2]; in PEG 1000, 40° C., 700 rpm for 24 hours
  Solubility: 141 mg/g
[2]; in PEG 1000, 50° C., 700 rpm for 24 hours
  Solubility: 146 mg/g
[3]; in TPGS + 5 vol % PEG1000 + 100 ppm AP, 45° C., 96 h
  Solubility: 186 mg/g
[3]; in TPGS + 5 vol % PEG1000, 45° C., 24 h
  Solubility: 263 mg/g
[3]; in TPGS + 10 vol % PEG1000 + 100 ppm AP, 45° C., 96 h
  Solubility: 157 mg/g
[3]; in TPGS + 10 vol % PEG1000, 45° C., 24 h
  Solubility: 206 mg/g
[3]; in TPGS + 15 vol % PEG1000 + 100 ppm AP, 45° C., 96 h
  Solubility: 144 mg/g
[3]; in TPGS + 15 vol % PEG1000, 45° C., 24 h
  Solubility: 179 mg/g
[3]; in TPGS + 100 ppm AP, 45° C., 96 h
  Solubility: 225 mg/g
[3]; in TPGS, 45° C., 24 h
  Solubility: 274 mg/g
[4]; in TPGS:ATO5 90:10 w/w, 60° C.
  Solubility: 216.1 mg/g
[4]; in TPGS:ATO5 90:10 w/w, 65° C.
  Solubility: 219.0 mg/g
[4]; in TPGS:ATO5 95:5 w/w, 60° C.
  Solubility: 270.0 mg/g
[4]; in TPGS:ATO5 95:5 w/w, 65° C.
  Solubility: 295.5 mg/g
[4]; in TPGS:ATO5 98:2 w/w, 60° C.
  Solubility: 228.2 mg/g
[4]; in TPGS:ATO5 98:2 w/w, 65° C.
  Solubility: 248.5 mg/g
[4]; in TPGS:PEG3350 90:10 w/w, 55° C.
  Solubility: 71.0 mg/g
[4]; in TPGS:PEG3350 90:10 w/w, 60° C.
  Solubility: 76.2 mg/g
[4]; in TPGS:PEG6000 90:10 w/w, 55° C.
  Solubility: 60.8 mg/g
[4]; in TPGS:PEG6000 90:10 w/w, 60° C.
  Solubility: 66.6 mg/g
[4]; in TPGS:PEG6000 95:5 w/w, 55° C.
  Solubility: 81.0 mg/g
[4]; in TPGS:PEG6000 95:5 w/w, 60° C.
  Solubility: 84.0 mg/g
[4]; in TPGS:PEG6000 98:2 w/w, 55° C.
  Solubility: 63.0 mg/g
[4]; in TPGS:PEG6000 98:2 w/w, 60° C.
  Solubility: 66.8 mg/g
[4]; in the Precirol ATO 5/TPGS system
  Solubility: > 200 mg/g
